Measured values taken from patent publication US20100183504A1, “MULTIMODAL IMAGING PROBES FOR IN VIVO TARGETED AND NON-TARGETED IMAGING AND THERAPEUTICS” (priority 2007, published 2010).

Assays:
Assay type in all cases: physicochemical
[1] = T1/T2 relaxation MRI on Bruker Avance 400 MHz (9.4 T) microimaging system; conditions: measured simultaneously with the nanoparticles at 400 MHz; repeated
Protocol: The concentrations of our solutions are given in terms of silanized nanoparticle concentration and not in terms of Gd^3+ present in solution because the latter is attached to the nanoparticles. At 1 μM concentration, the average distance between nanoparticles is over 100 nm. We determined the concentration of the nanoparticle solution by measuring the UV-vis spectrum. […] We used the following numbers: QD exciton peak at approximately 610 nm, fluorescence emission at approximately 630 nm, full width at half-maximum (fwhm) of 38 nm, extinction coefficient used 620 000 M^−1cm^−1 following published reports (Yu, et al. (2003) Chem. Mater. 15: 2854-2860). […] These latter numbers were computed from the concentrations given by the manufacturer and the OD of citrate-stabilized Au colloids measured directly out of the bottle.
(§1) All MRI experiments were performed on a Bruker Avance 400 MHz (9.4 T) spectrometer equipped with a high-resolution Micro5 microimaging system with a 25 mm RF coil. […] We also obtained quantitative evaluation of the longitudinal relaxation times, T1, by plotting M/Mo versus log(τ), that is, the residual magnetization as a function of the recovery time. T1 values were measured by fitting M(τ)/Mo to an single-exponential growth curve: (M(τ)/Mo)=(1−[…]). Transverse relaxation times were determined by a plot of log-(M/Mo) versus τ. […]

[2] = T1 and T2 relaxation time measurements on Bruker Minispecs at 20 and 60 MHz; conditions: 20-100 MHz; comparison line
Text: After extensive purification from unbound Gd-DOTA, these samples were chemically analyzed by inductively coupled plasma mass spectrometry (ICP-MS) by measuring the total amount of Gd and Cd or Au ions. By assuming bulk parameters of the CdSe or Au lattice and the size of the nanoparticles (using tabulated values linking the size of the QDs to its optical properties, or the claimed size for Au nanocrystals), we deduced the number of Gd per silanized nanoparticle. The number of Gd^3+ […] SiO2-coated nanoparticle varied from 3 to greater than 300 and depends on the size of the initial nanoparticles and the conditions used during the conjugation of Gd-DOTA to the silanized nanoparticles. Notice that the same samples were used for MRI study and ICP-MS analysis.
T1 and T2 relaxation time measurements were performed on Bruker Minispecs operating at 1H resonance frequencies of 20 and 60 MHz. An inversion recovery pulse sequence was employed for T1 relaxation time measurements using a monoexponential fit to the recovery curve. For each experiment, 4 scans were collected with a recycle delay of 15 s. To obtain the recovery curve, 50 evenly spaced points were collected with the first point acquired at 5 ms. […]
(§2) The T2 times were calculated from a monoexponential fit to a spin echo decay curve using a Carr-Purcell-Meiboom-Gill (CPMG) pulse sequence. […]

[3] = Relaxivities summarised over the field strengths investigated or without stated field; conditions: three field strengths investigated
Protocol: T1 and T2 relaxation time measurements were performed on Bruker Minispecs operating at 1H resonance frequencies of 20 and 60 MHz. An inversion recovery pulse sequence was employed for T1 relaxation time measurements using a monoexponential fit to the recovery curve. For each experiment, 4 scans were collected with a recycle delay of 15 s. To obtain the recovery curve, 50 evenly spaced points were collected with the first point acquired at 5 ms. The last time point was collected at 4000 ms for short T1 samples and 10,000 ms for samples with long T1 so that each sample was allowed to fully recover. The receiver gain for each sample was set so that the signal amplitude was approximately 60%.
as §2, §1

[4] = Gd3+ release from DOTA, colorimetric Arsenazo test; conditions: several weeks
Protocol: The synthesis of Gd-DOTA (i.e., one Gd3+ ion chelated by DOTA) was performed according to a procedure adapted from previous reports (Wang et al. (1992) Inorg. Chem. 31: 1095-1099; Prantner et al. (2003) Mol. Imaging 2: […]). We dissolved p-NH2-Bn-DOTA (2-(4-aminobenzyl)-1,4,7,10-tet-raazacyclododecane-1,4,7,10-tetraacetic acid) in water and add an aqueous solution of GdCl3 (Sigma-Alrich), so as to have a 1:0.98 molar mixture of DOTA/Gd3+ and approximately 0.2 M concentration in DOTA. The solution was heated a few minutes to 80° C. to favor coordination of Gd3+ with the tetraazacy-clododecane ring. The pH of the solution droped below 1. We brought the pH to 3.5-4 by adding aliquots of 7 M NaOH and heat the solution back to 80° C. for a few minutes. At this early stage, heating produces acidification of the solution. […] At that stage, the solution was kept at 80° C. for 3 h. Completion of the Gd^3+ chelation was confirmed by a colorimetric assay using Arsenazo dye (Sigma-Alrich). This colorimetric dye reacts to the presence of unbound or free Gd^3+. The dye natural color is purple, but if it binds to Gd^3+ its color turns to blue. […] The stability of the Gd-DOTA has been studied using the colorimetric Arsenazo test.

Gd-DOTA
r1 Gd^3+ ion relaxivity of unbound Gd-DOTA [1]: 3.7 ± 0.04 mM⁻¹ s⁻¹ | r2 Gd^3+ ion relaxivity of unbound Gd-DOTA [1]: 3.8 ± 0.2 mM⁻¹ s⁻¹ | r1 Gd^3+ ion relaxivity of unbound Gd-DOTA [2]: 3 to 5 mM⁻¹ s⁻¹ | relaxivities of unbound Gd-DOTA [3]: 3 to 12 mM⁻¹ s⁻¹ | Gd^3+ release from the DOTA ring [4]: No Gd^3+ release
